How the values were obtained:
Assay in all cases: relative viability (nuclei count vs DMSO), 5 days (fraction); higher = more cells survive
[1] = compound: C1COCCN1C2=NC(=NC3=C2OC4=C3C=CC=N4)C5=CC(=CC=C5)NC(=O)C6=CN=C(C=C6)N + CC(=O)c1c(C)c2cnc(Nc3ccc(N4CCNCC4)cn3)nc2n(C2CCCC2)c1=O [Palbociclib] (partner 0.5 µM)
Method in brief: (§1)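 Relative viability equals treated-well nuclei counts divided by vehicle-well nuclei counts. Counts came from 4× images of lung cancer cell lines grown in 1536-well plates for 5 days after pin-tool dosing on the day after seeding. Dosing used one drug alone or a fixed anchor-drug dose plus five library-drug doses (not always all listed) in √10 steps, and values are medians of duplicate plates.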

SGI-1776 + Luminespib = compound: CN1CCC(CNc2ccc3ncc(-c4cccc(OC(F)(F)F)c4)n3n2)CC1 [SGI-1776] + CCNC(=O)c1noc(-c2cc(C(C)C)c(O)cc2O)c1-c1ccc(CN2CCOCC2)cc1 [Luminespib] (partner 0.01 µM)
Method in brief: as §1

Entinostat + Palbociclib = compound: Nc1ccccc1NC(=O)c1ccc(CNC(=O)OCc2cccnc2)cc1 [Entinostat] + CC(=O)c1c(C)c2cnc(Nc3ccc(N4CCNCC4)cn3)nc2n(C2CCCC2)c1=O [Palbociclib] (partner 0.5 µM)
Method in brief: as §1

SGI-1776 + Decitabine = compound: CN1CCC(CNc2ccc3ncc(-c4cccc(OC(F)(F)F)c4)n3n2)CC1 [SGI-1776] + Nc1ncn([C@H]2C[C@H](O)[C@@H](CO)O2)c(=O)n1 [Decitabine] (partner 2 µM)
Method in brief: as §1

Cell Line: UMC-11
- relative viability ([1]; first compound 0.02 µM): 0.347
- relative viability ([1]; first compound 0.06325 µM): 0.327
- relative viability ([1]; first compound 0.2 µM): 0.344
- relative viability ([1]; first compound 0.6325 µM): 0.324
- relative viability ([1]; first compound 2 µM): 0.265
- relative viability (SGI-1776 + Luminespib; first compound 0.08 µM): 1.02
- relative viability (SGI-1776 + Luminespib; first compound 0.8 µM): 0.971
- relative viability (SGI-1776 + Luminespib; first compound 2.53 µM): 0.899
- relative viability (SGI-1776 + Luminespib; first compound 8 µM): 0.862
- relative viability (Entinostat + Palbociclib; first compound 0.02 µM): 0.367
- relative viability (Entinostat + Palbociclib; first compound 0.06325 µM): 0.338
- relative viability (Entinostat + Palbociclib; first compound 0.2 µM): 0.367
- relative viability (Entinostat + Palbociclib; first compound 0.6325 µM): 0.274
- relative viability (Entinostat + Palbociclib; first compound 2 µM): 0.202
- relative viability (SGI-1776 + Decitabine; first compound 0.08 µM): 0.588
- relative viability (SGI-1776 + Decitabine; first compound 0.8 µM): 0.571
- relative viability (SGI-1776 + Decitabine; first compound 2.53 µM): 0.654
- relative viability (SGI-1776 + Decitabine; first compound 8 µM): 0.467
